Assay results taken from patent US20260200928A1, “THERAPEUTIC COMPOUNDS” (Sanofi, priority 2022, published 2026).

Each molecule was assayed against T1, human IL-17A (Homo sapiens, UniProt Q16552) (assay: IL-17A AlphaLISA competition assay (block of IL-17A binding to its receptor IL-17RA)). Conditions: mean IC50 (n≥2), block of IL-17A binding to IL-17RA.
T1 construct: purchased R&D Systems 7955-IL/CF
T1 sequence (Q16552 24-155): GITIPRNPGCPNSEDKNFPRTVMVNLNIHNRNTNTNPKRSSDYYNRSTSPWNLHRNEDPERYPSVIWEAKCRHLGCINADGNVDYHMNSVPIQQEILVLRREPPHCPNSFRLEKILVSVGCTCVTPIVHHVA
Procedure, shortened: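 Bead-based AlphaLISA competition in PBS with 0.05% Tween-20 and 0.1% BSA: compound first meets human IL-17A (7.5 nM stock) for 30 min, then IL-17RA/Fc (5 nM stock) for 90 min, all at room temperature, before acceptor/donor bead capture. IC50 fitted 4-parameter, DMSO and 4 μM reference inhibitor as controls; at least duplicate.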
Molecule COC[C@H](c1ccnc(NC(=O)C(NC(=O)c2nonc2C2CC2)C2CCC(F)CC2)c1)N1C[C@@H](C(F)(F)F)NC1=O (single isomer, unassigned) [Example 279] has an IC50 of 12 µM. Work on CC(C)n1nccc1C(=O)N[C@H](C(=O)Nc1cc(C[C@@H]2C[C@@H](C(F)(F)F)NC2=O)ccn1)[C@H]1CC[C@H](C)CC1 [Example 154, 1-isopropyl-N—((S)-1-((1r,4S)-4-methylcyclohexyl)-2-oxo-2-((4-(((3R,5S)-2-oxo-5-(trifluoromethyl)pyrrolidin-3-yl)methyl)pyridin-2-yl)amino)ethyl)-1H-pyrazole-5-carboxamide] yielded an IC50 of 0.527 µM. For CCn1nccc1C(=O)N[C@H](C(=O)Nc1cc([C@@H](C)N2C[C@@H](C(F)(F)F)NC2=O)ccn1)[C@H]1CC[C@H](C)CC1 [Example 239, 1-ethyl-N-((S)-1-((1r,4S)-4-methylcyclohexyl)-2-oxo-2-((4-((R)-1-((S)-2-oxo-4-(trifluoromethyl)imidazolidin-1-yl)ethyl)pyridin-2-yl)amino)ethyl)-1H-pyrazole-5-carboxamide], the IC50 was 0.016 µM. “N-((1S)-1-(4-chlorocyclohexyl)-2-((4-((S)-2-methoxy-1-((S)-2-oxo-4-(trifluoromethyl)imidazolidin-1-yl)ethyl)pyridin-2-yl)amino)-2-oxoethyl)-1-methyl-1H-pyrazole-5-carboxamide [Example 311]” was tested, and the IC50 was 0.096 µM. COCC(NC(=O)CCC(F)(F)F)c1ccnc(NC(=O)[C@@H](NC(=O)c2ccnn2C2CC2)C2CCC(F)(F)CC2)c1 (single isomer, unassigned) [Example 139] gave an IC50 of 0.265 µM. For C[C@H]1CC[C@H]([C@H](NC(=O)c2ccnn2CCC(O)C(F)(F)F)C(=O)Nc2cc(CN3C[C@@H](C(F)(F)F)NC3=O)ccn2)CC1 (single isomer, unassigned) [Example 68], the IC50 was 0.136 µM. With Cc1nonc1C(=O)N[C@@H](COC(C)(C)C(F)(F)F)C(=O)Nc1cc(CN2C[C@@H](C(F)(F)F)NC2=O)ccn1 [Example 273, 4-methyl-N—((S)-1-oxo-1-((4-(((S)-2-oxo-4-(trifluoromethyl)-imidazolidin-1-yl)methyl)pyridin-2-yl)amino)-3-((1,1,1-trifluoro-2-methylpropan-2-yl)oxy)propan-2-yl)-1,2,5-oxadiazole-3-carboxamide] the IC50 was 0.403 µM. Work on COCC(c1ccnc(NC(=O)[C@@H](NC(=O)c2conc2C(C)C)[C@H]2CC[C@H](C)CC2)c1)N1C[C@@H](C(F)(F)F)NC1=O (single isomer, unassigned) [Example 89] yielded an IC50 of 0.011 µM. CCc1nocc1C(=O)NC(C(=O)Nc1cc(CC2=C[C@@H](C(F)(F)F)NC2=O)ccn1)C1CCC(F)(F)CC1 (stereo in doubt) [Example 216, N-((1S)-1-(4,4-difluorocyclohexyl)-2-oxo-2-((4-((2-oxo-5-(trifluoromethyl)-2,5-dihydro-1H-pyrrol-3-yl)methyl)pyridin-2-yl)amino)ethyl)-3-ethylisoxazole-4-carboxamide] showed an IC50 of 0.137 µM. Molecule COCC(c1ccnc(NC(=O)[C@@H](NC(=O)c2nc(Cl)ncc2C)[C@H]2CC[C@H](C)CC2)c1)N1C[C@@H](C(F)(F)F)NC1=O (single isomer, unassigned) [Example 95] has an IC50 of 5.49 µM. With CCc1nocc1C(=O)NC(C(=O)Nc1cc([C@@H](COC)N2C[C@@H](C(F)(F)F)NC2=O)ccn1)C1CCC(F)CC1 (single isomer, unassigned) [Example 286] the IC50 was 0.04 µM. With CCc1ncoc1C(=O)NC(C(=O)Nc1cc(C[C@H]2C[C@@H](C(F)(F)F)NC2=O)ccn1)C1CCC(F)(F)CC1 (stereo in doubt) [Example 217, N—((S)-1-(4,4-difluorocyclohexyl)-2-oxo-2-((4-(((3S,5S)-2-oxo-5-(trifluoro-methyl)pyrrolidin-3-yl)methyl)pyridin-2-yl)amino)ethyl)-4-ethyloxazole-5-carboxamide] the IC50 was 0.465 µM. For CN1C[C@H]2[C@@H]([C@H]1C(=O)N[C@H](C(=O)Nc1cc(C(NC(=O)CCC(F)(F)F)C3CC3)ccn1)C(C1CC1)C1CC1)C2(C)C (single isomer, unassigned) [Example 56], the IC50 was 7.42 µM. C[C@H]1CC[C@H]([C@H](NC(=O)c2nonc2C2CC2)C(=O)Nc2cc(CN3C[C@@H](C(F)(F)F)NC3=O)c(F)cn2)CC1 [Example 61, 4-cyclopropyl-N-((S)-2-((5-fluoro-4-(((S)-2-oxo-4-(trifluoromethyl)imidazolidin-1-yl)methyl)pyridin-2-yl)amino)-1-((1r,4S)-4-methylcyclohexyl)-2-oxo-ethyl)-1,2,5-oxadiazole-3-carboxamide] gave an IC50 of 0.612 µM. CCn1nccc1C(=O)NC(C(=O)Nc1cc([C@@H](COC)N2C[C@@H](C(F)(F)F)NC2=O)ccn1)C1CCC(F)CC1 (single isomer, unassigned) [Example 280] gave an IC50 of 0.065 µM. Work on COCC(c1ccnc(NC(=O)C(NC(=O)C(F)(F)c2cnccn2)C2CCC(C)CC2)c1)N1CC(C(F)(F)F)NC1=O (single isomer, unassigned) [Example 251] yielded an IC50 of 0.033 µM. CCC(c1ccnc(NC(=O)C(NC(=O)c2nonc2C2CC2)C2CCC(C)CC2)c1)N1CC(C(F)(F)F)NC1=O [Example 257, 4-cyclopropyl-N-((S)-1-((1r,4S)-4-methylcyclohexyl)-2-oxo-2-((4-((R)-1-((S)-2-oxo-4-(trifluoromethyl)imidazolidin-1-yl)propyl)pyridin-2-yl)amino)ethyl)-1,2,5-oxadiazole-3-carboxamide] was tested, and the IC50 was 0.032 µM. For CC(C)n1nccc1C(=O)N[C@H](C(=O)Nc1cc([C@@H](C)NC(=O)CCC(F)(F)F)ccn1)C1CCC(F)(F)CC1 [Example 167, N—((S)-1-(4,4-difluorocyclohexyl)-2-oxo-2-((4-((R)-1-(4,4,4-trifluoro-butanamido)ethyl)pyridin-2-yl)amino)ethyl)-1-isopropyl-1H-pyrazole-5-carboxamide], the IC50 was 0.222 µM. Molecule O=C(NC(C(=O)Nc1cc(CN2CC(C(F)(F)F)NC2=O)ccn1)C1CCC(F)CC1)c1nonc1C1CC1 [Example 292, 4-cyclopropyl-N-((S)-1-((1r,4S)-4-fluorocyclohexyl)-2-oxo-2-((4-(((S)-2-oxo-4-(trifluoromethyl)imidazolidin-1-yl)methyl)pyridin-2-yl)amino)ethyl)-1,2,5-oxadiazole-3-carboxamide] has an IC50 of 0.104 µM. Molecule COCC(c1ccnc(NC(=O)[C@@H](NC(=O)c2ccnn2C(C)C)[C@H]2CC[C@H](C)CC2)c1)N1C[C@@H](C(F)(F)F)NC1=O (single isomer, unassigned) [Example 87] has an IC50 of 0.013 µM. CC(C)c1nocc1C(=O)N[C@H](C(=O)Nc1cc(CN2C[C@@H](C(F)(F)F)NC2=O)ccn1)C1CCC(F)(F)CC1 [Example 21, N-((S)-1-(4,4-difluorocyclohexyl)-2-oxo-2-((4-(((S)-2-oxo-4-(trifluoro-methyl)imidazolidin-1-yl)methyl)pyridin-2-yl)amino)ethyl)-3-isopropyl-isoxazole-4-carboxamide] gave an IC50 of 0.138 µM. Molecule CCc1nocc1C(=O)NC(C(=O)Nc1cc(C(NC(=O)CCC(F)(F)F)C2CC2)ccn1)C1CCC(F)(F)CC1 (stereo not shown) [Example 49, N-(2-((4-(cyclopropyl(4,4,4-trifluorobutanamido)methyl)pyridin-2-yl)amino)-1-(4,4-difluorocyclohexyl)-2-oxoethyl)-3-ethylisoxazole-4-carboxamide] has an IC50 of 0.776 µM. For CCc1nocc1C(=O)N[C@@H](COC(C)(C)C(F)(F)F)C(=O)Nc1cc([C@@H](COC)N2C[C@@H](C(F)(F)F)NC2=O)ccn1 [Example 267, 3-ethyl-N-((S)-1-((4-((S)-2-methoxy-1-((S)-2-oxo-4-(trifluoromethyl)imidazolidin-1-yl)ethyl)pyridin-2-yl)amino)-1-oxo-3-((1,1,1-trifluoro-2-methylpropan-2-yl)oxy)propan-2-yl)isoxazole-4-carboxamide], the IC50 was 0.027 µM. Work on [2H]C([2H])([2H])C([2H])([2H])n1ccc(C(=O)N[C@H](C(=O)Nc2cc([C@@H](COC)N3C[C@@H](C(F)(F)F)NC3=O)ccn2)C2CCC(F)(F)CC2)n1 [Example 190, N-((S)-1-(4,4-difluorocyclohexyl)-2-((4-((S)-2-methoxy-1-((S)-2-oxo-4-(trifluoromethyl)imidazolidin-1-yl)ethyl)pyridin-2-yl)amino)-2-oxoethyl)-1-(ethyl-d5)-1H-pyrazole-3-carboxamide] yielded an IC50 of 0.816 µM. COC[C@H](c1ccnc(NC(=O)[C@@H](NC(=O)Cc2ccc(OC)nc2)C2CCC(F)(F)CC2)c1)N1C[C@@H](C(F)(F)F)NC1=O [Example 204, (S)-2-(4,4-difluorocyclohexyl)-N-(4-((S)-2-methoxy-1-((S)-2-oxo-4-(trifluoromethyl)imidazolidin-1-yl)ethyl)pyridin-2-yl)-2-(2-(6-methoxypyridin-3-yl)acetamido)acetamide] gave an IC50 of 0.129 µM. In the case of COCC(NC(=O)CCC(F)(F)F)c1ccnc(NC(=O)[C@@H](NC(=O)c2nccn2C(C)C)C2CCC(F)(F)CC2)c1 (single isomer, unassigned) [Example 148], the IC50 is reported as 8.28 µM. In the case of COC[C@H](c1ccnc(NC(=O)[C@@H](NC(=O)C(F)(F)c2cccc(C#N)c2)[C@H]2CC[C@H](C)CC2)c1)N1C[C@@H](C(F)(F)F)NC1=O (relative stereo) [Example 247, 2-(3-Cyanophenyl)-2,2-difluoro-N—((S)-2-((4-((S)-2-methoxy-1-((S)-2-oxo-4-(trifluoromethyl)imidazolidin-1-yl)ethyl)pyridin-2-yl)amino)-1-((1r,4S)-4-methylcyclohexyl)-2-oxoethyl)acetamide], the IC50 is reported as 0.058 µM. With COC[C@H](c1ccnc(NC(=O)[C@@H](NC(=O)Cc2cccc(C#N)c2)C2CCC(F)(F)CC2)c1)N1C[C@@H](C(F)(F)F)NC1=O [Example 206, (S)-2-(2-(3-cyanophenyl)acetamido)-2-(4,4-difluorocyclohexyl)-N-(4-((S)-2-methoxy-1-((S)-2-oxo-4-(trifluoromethyl)imidazolidin-1-yl)ethyl)pyridin-2-yl)acetamide] the IC50 was 0.157 µM.
